Experimental findings from patent US12637428B2, “Isoquinoline derivatives as SIK2 inhibitors” (Cancer Research Technology Limited, priority 2019, dated 2026) are described below.

What all share (format): biochemical
Assay [1] has as its target T1, SIK2 (Homo sapiens, UniProt Q9H0K1).
T1 construct: purchased Life Technologies
Description: SIK2 kinase assay, IMAP fluorescence polarization. Particulars: 50 or 100 μM ATP, average. The method in brief:
(§1)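 IMAP FP format: 0.6-13 nM kinase, 100 nM FAM-peptide substrate, 50 or 100 μM ATP, Tris pH 7.2/4 mM MgCl2/0.2% BSA/2 mM DTT, 60 min RT. Compounds 0.00005-1 μM. Stop with 0.25% IMAP binding reagent (buffer A:B 85:15; 30:70 for Src).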
In general terms: In fluorescence polarisation assays a small probe gives low polarisation when free and higher when bound to something large.

Assay [2] has as its target T2, SIK1 (Homo sapiens, UniProt P57059).
T2 construct: purchased Life Technologies
Description: SIK1 kinase assay, IMAP fluorescence polarization. Particulars: 50 or 100 μM ATP, average. The method in brief:
as §1

For assay [3], the target named is T3, SIK3 (Homo sapiens, UniProt Q9Y2K2).
T3 construct: purchased Life Technologies
The assay can be described thus: SIK3 kinase assay, IMAP fluorescence polarization. Conditions: 50 or 100 μM ATP, average. The method in brief: as §1

Assay [4] has as its target T4, Abl (Homo sapiens, UniProt P00519).
T4 construct: purchased Life Technologies
Description: Abl kinase assay, IMAP fluorescence polarization. Particulars: 50 or 100 μM ATP, average. In outline:
as §1

Assay [5] has as its target T5, Src (Homo sapiens, UniProt P12931).
T5 construct: purchased Life Technologies
The assay can be described thus: Src kinase assay, IMAP fluorescence polarization. Conditions: 50 or 100 μM ATP, average. The method in brief: as §1

Assay [6] has as its target T6, EPHA2 (Homo sapiens, UniProt P29317).
T6 construct: purchased Life Technologies
Description: EPHA2 kinase assay, IMAP fluorescence polarization. Particulars: 50 or 100 μM ATP, Tris pH 8.5, average.

T1 sequence (Q9H0K1 whole entry): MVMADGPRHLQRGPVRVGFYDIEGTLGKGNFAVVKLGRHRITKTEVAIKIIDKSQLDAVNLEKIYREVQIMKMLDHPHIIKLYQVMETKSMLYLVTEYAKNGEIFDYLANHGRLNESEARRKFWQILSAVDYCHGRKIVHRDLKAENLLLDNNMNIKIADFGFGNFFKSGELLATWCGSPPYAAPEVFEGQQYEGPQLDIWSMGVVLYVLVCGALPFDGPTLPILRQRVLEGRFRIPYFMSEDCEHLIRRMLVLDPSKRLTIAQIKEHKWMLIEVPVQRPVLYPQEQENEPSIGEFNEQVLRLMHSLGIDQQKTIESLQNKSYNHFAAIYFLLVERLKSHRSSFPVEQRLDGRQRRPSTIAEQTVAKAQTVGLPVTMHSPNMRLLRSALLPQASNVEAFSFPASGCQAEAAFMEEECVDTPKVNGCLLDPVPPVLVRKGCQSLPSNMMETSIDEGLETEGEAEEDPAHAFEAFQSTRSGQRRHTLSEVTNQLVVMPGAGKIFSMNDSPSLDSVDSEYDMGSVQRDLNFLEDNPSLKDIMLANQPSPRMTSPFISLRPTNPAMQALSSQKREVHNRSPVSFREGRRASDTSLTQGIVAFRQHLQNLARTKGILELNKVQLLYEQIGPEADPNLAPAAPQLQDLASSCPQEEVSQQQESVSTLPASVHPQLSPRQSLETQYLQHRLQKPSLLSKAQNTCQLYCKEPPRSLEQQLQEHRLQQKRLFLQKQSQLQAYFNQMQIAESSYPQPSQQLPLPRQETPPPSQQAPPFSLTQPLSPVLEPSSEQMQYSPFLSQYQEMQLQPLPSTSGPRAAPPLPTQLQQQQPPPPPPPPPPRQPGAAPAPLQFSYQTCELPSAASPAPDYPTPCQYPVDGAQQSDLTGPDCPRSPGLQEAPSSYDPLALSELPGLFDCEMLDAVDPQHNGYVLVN
T5 sequence (P12931 whole entry): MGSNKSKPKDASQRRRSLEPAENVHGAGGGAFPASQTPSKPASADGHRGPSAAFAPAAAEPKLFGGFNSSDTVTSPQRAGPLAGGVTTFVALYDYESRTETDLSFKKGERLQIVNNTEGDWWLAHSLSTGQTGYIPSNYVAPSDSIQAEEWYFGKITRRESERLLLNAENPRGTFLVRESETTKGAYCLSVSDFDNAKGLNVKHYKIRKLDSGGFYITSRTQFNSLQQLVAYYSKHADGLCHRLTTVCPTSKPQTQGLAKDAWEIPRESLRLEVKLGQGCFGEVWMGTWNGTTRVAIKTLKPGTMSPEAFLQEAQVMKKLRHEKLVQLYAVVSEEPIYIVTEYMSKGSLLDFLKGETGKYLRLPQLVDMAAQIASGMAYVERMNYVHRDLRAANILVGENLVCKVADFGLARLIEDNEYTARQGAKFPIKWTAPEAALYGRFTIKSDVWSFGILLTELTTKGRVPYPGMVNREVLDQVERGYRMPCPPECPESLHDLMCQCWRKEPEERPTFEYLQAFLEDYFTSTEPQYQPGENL
T6 sequence (P29317 24-976): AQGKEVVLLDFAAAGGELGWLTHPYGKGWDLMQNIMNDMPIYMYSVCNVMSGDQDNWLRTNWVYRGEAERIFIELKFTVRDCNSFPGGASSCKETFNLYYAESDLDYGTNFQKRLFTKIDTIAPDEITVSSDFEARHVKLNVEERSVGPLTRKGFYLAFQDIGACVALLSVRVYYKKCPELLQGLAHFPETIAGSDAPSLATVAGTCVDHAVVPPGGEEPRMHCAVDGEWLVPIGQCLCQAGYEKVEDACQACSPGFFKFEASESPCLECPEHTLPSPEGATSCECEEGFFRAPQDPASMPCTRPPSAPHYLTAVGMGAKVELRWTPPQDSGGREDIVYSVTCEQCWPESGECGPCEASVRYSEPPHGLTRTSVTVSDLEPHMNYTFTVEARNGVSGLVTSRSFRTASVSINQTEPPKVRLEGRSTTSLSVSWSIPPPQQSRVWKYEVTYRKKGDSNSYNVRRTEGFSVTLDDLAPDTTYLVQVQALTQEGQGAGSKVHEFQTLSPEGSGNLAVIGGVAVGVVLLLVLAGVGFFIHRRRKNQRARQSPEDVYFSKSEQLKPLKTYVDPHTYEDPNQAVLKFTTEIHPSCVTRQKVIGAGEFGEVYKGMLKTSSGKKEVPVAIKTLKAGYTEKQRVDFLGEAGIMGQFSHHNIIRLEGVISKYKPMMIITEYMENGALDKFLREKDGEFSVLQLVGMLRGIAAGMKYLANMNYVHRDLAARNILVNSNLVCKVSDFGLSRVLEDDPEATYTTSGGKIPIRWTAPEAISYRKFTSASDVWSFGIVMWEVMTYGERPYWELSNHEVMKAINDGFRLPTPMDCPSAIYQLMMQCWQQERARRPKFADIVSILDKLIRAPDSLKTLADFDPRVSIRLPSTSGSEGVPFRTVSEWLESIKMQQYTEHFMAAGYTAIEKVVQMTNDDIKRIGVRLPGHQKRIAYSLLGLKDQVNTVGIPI
T2 sequence (P57059 whole entry): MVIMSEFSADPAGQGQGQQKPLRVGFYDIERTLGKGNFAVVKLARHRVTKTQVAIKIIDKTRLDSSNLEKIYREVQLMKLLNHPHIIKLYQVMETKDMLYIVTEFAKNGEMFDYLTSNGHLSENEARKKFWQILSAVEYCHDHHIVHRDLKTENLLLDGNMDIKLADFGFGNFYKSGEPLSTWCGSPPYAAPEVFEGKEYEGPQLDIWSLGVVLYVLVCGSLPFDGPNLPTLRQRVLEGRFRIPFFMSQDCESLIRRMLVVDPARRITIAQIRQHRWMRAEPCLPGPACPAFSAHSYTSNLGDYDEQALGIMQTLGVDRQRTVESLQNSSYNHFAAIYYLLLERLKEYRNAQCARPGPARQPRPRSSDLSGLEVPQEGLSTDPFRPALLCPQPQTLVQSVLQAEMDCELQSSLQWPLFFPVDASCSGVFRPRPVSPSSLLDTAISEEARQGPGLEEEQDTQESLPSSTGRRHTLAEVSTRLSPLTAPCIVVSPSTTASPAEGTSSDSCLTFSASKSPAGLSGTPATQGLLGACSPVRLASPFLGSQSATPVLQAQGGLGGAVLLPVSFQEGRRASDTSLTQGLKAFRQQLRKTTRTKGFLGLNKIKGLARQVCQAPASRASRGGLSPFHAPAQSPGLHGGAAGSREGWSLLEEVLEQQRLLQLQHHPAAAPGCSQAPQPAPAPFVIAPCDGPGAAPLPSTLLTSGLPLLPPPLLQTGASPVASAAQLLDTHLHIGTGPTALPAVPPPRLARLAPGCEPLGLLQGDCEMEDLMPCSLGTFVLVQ
T3 sequence (Q9Y2K2 whole entry): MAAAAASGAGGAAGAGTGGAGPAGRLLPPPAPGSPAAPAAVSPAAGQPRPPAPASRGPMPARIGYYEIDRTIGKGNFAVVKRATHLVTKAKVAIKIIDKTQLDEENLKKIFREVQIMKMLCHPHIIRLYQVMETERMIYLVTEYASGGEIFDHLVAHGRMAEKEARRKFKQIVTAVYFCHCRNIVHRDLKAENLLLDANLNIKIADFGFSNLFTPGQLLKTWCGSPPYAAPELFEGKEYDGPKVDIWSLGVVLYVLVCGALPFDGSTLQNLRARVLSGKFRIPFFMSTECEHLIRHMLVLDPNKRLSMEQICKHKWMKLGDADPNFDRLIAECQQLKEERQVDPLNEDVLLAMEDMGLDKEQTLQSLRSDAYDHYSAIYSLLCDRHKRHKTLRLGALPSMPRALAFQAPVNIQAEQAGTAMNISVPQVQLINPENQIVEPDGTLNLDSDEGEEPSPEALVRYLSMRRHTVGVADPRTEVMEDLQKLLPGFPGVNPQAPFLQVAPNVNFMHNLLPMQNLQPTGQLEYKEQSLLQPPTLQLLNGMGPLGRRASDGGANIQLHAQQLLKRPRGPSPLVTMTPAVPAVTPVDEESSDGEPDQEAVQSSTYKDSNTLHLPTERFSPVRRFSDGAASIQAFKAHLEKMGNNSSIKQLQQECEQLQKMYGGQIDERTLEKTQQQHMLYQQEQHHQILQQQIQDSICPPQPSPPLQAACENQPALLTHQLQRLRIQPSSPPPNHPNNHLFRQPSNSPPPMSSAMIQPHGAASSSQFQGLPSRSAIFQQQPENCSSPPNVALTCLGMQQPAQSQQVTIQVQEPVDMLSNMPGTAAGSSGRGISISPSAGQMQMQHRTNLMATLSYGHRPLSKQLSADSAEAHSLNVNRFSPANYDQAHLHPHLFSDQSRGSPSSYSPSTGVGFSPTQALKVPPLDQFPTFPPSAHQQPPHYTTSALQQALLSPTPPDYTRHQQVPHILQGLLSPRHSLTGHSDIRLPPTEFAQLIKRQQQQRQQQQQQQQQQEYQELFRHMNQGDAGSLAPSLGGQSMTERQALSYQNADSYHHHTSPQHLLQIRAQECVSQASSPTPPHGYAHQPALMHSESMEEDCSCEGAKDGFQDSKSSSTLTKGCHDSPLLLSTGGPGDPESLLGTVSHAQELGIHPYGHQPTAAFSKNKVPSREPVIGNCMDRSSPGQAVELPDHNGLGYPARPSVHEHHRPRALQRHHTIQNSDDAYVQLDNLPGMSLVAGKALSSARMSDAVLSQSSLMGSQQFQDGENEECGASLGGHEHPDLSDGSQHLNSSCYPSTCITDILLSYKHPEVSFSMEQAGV

A word on the Ki: it is a dissociation constant, usually derived from enzyme kinetics or from competition with a known ligand. The low end stands for higher affinity, the high end for lower affinity. For `Cc1cccc(F)c1-c1cc(C(=O)NC2CCNCC2)c2cc(N)ncc2c1` [Example 52, 3-Amino-7-(2-fluoro-6-methyl-phenyl)-N-(4-piperidyl)isoquinoline-5-carboxamide], the Ki in assay [1] is 3.09 nM; in assay [2] it was 5.45 nM; in assay [3], 11.5 nM; in assay [4] it was 12.1 nM; in assay [5] it was 60 nM; in assay [6], 23.9 nM.

As to `Cc1cccc(F)c1-c1cc(NC2CNC2)c2ccncc2c1` [Example 51, N-(azetidin-3-yl)-7-(2-fluoro-6-methyl-phenyl)isoquinolin-5-amine], the Ki in assay [1] came to 0.532 nM; in assay [2] it was 2.81 nM; in assay [3], 3.16 nM; in assay [4] it was 24.9 nM; in assay [5], 220 nM; in assay [6], 242 nM.

In the case of `Cc1cccc(F)c1-c1cc(NC[C@@H]2CCN(C)C2)c2cc(N)ncc2c1` [Example 74, 7-(2-fluoro-6-methyl-phenyl)-N5-[[(3S)-1-methylpyrrolidin-3-yl]methyl]isoquinoline-3,5-diamine], the Ki was 0.101 nM in assay [1]; 0.461 nM in assay [2]; 0.765 nM in assay [3]; 0.505 nM in assay [4]; above 1000 nM in assay [5]; 66.1 nM in assay [6].

For `Cc1cccc(F)c1-c1cc(NC2CCNCC2)c2nc(N)ncc2c1` [Example 124, 6-(2-fluoro-6-methyl-phenyl)-N8-(4-piperidyl)quinazoline-2,8-diamine], the Ki in assay [1] was 0.0472 nM; in assay [2], 0.338 nM; in assay [3] it was 0.354 nM; in assay [4] it was 6.13 nM; in assay [5] it was 17.1 nM; in assay [6], 48.6 nM.

Consider `Cc1cccc(F)c1-c1cc(N[C@H]2CCNC2)c2cc(N)ncc2c1` [Example 7, 7-(2-fluoro-6-methyl-phenyl)-N5-[(3S)-pyrrolidin-3-yl]isoquinoline-3,5-diamine], for which the Ki in assay [1] was determined as 0.0496 nM; in assay [2] it was 0.414 nM; in assay [3], 0.325 nM; in assay [4], 5.55 nM; in assay [5], 193 nM; in assay [6] it was 199 nM.

As for `Cc1cccc(F)c1-c1cc(NC2CCNCC2)c2cc(N)ncc2c1F` [Example 120, 8-Fluoro-7-(2-fluoro-6-methyl-phenyl)-N5-(4-piperidyl)isoquinoline-3,5-diamine], the Ki in assay [1] was 2.43 nM; in assay [2], 3.55 nM; in assay [3], 22.1 nM; in assay [4], above 1000 nM; in assay [5], above 1000 nM; in assay [6], above 1000 nM.

Consider `Cc1cccc(F)c1-c1cc(NC[C@H]2CCN(C)C2)c2cc(N)ncc2c1` [Example 75, 7-(2-fluoro-6-methyl-phenyl)-N5-[[(3R)-1-methylpyrrolidin-3-yl]methyl] isoquinoline-3,5-diamine], for which the Ki worked out at 0.19 nM in assay [1]; 0.618 nM in assay [2]; 2 nM in assay [3]; 10.3 nM in assay [4]; 45.2 nM in assay [5]; 120 nM in assay [6].

`Cc1cccc(F)c1-c1cc(C2CCN(C)CC2)c2cc(N)ncc2c1` [Example 117, 7-(2-Fluoro-6-methyl-phenyl)-5-(1-methyl-4-piperidyl)isoquinolin-3-amine]: the Ki is 0.0546 nM in assay [1]; 0.678 nM in assay [2]; 0.473 nM in assay [3]; 12.3 nM in assay [4]; above 1000 nM in assay [5]; above 1000 nM in assay [6].

Regarding `Cc1cccc(F)c1-c1cc(N2CCC(O)CC2)c2cc(N)ncc2c1` [Example 104, 1-[3-Amino-7-(2-fluoro-6-methyl-phenyl)-5-isoquinolyl]piperidin-4-ol], the Ki in assay [1] is 4.37 nM; in assay [2], 43.4 nM; in assay [3] it was 176 nM; in assay [4], 45.4 nM; in assay [5] it was above 1000 nM; in assay [6], above 1000 nM.

Take `Cc1cccc(Cl)c1-c1cc(NC2CCN(C)CC2)c2ncncc2c1` [Example 130, 6-(2-chloro-6-methyl-phenyl)-N-(1-methyl-4-piperidyl)quinazolin-8-amine]: the Ki in assay [1] was 2.87 nM; in assay [2], 5.53 nM; in assay [3], 17.2 nM; in assay [4], above 10000 nM; in assay [5] it was 549 nM; in assay [6] it was 85.3 nM.

As to `Cc1cccc(F)c1-c1cc(NC2CCN(C)CC2)c2cc(N)ncc2c1` [Example 54, 7-(2-Fluoro-6-methyl-phenyl)-N5-(1-methyl-4-piperidyl)isoquinoline-3,5-diamine], the Ki in assay [1] was 0.0466 nM; in assay [2], 0.418 nM; in assay [3] it was 0.883 nM; in assay [4], 16.1 nM; in assay [5] it was 103 nM; in assay [6], 195 nM.

With `Cc1cccc(F)c1-c1cc(N2CCC[C@H](O)C2)c2cc(N)ncc2c1` [Example 107, (3S)-1-[3-amino-7-(2-fluoro-6-methyl-phenyl)-5-isoquinolyl]piperidin-3-ol], the Ki in assay [1] is 4.46 nM; in assay [2] it was 24.6 nM; in assay [3], 201 nM; in assay [4], 56.4 nM; in assay [5], 617 nM; in assay [6], above 1000 nM.

In the case of `Cc1cccc(F)c1-c1cc(NCC2CNC2)c2cc(N)ncc2c1` [Example 11, N5-(azetidin-3-ylmethyl)-7-(2-fluoro-6-methyl-phenyl)isoquinoline-3,5-diamine], the Ki in assay [1] turned out to be 0.0672 nM; in assay [2], 0.417 nM; in assay [3], 0.195 nM; in assay [4], 0.921 nM; in assay [5], 23.5 nM; in assay [6] it was 95.1 nM.

For `Cc1cccc(F)c1-c1cc(N[C@H]2CCCNC2)c2cc(N)ncc2c1` [Example 26, 7-(2-fluoro-6-methyl-phenyl)-N5-[(3S)-3-piperidyl]isoquinoline-3,5-diamine], the Ki was 0.0395 nM in assay [1]; 0.302 nM in assay [2]; 0.0838 nM in assay [3]; 0.341 nM in assay [4]; 163 nM in assay [5]; 24.6 nM in assay [6].

Consider `Cc1cccc(F)c1-c1cc(NC[C@H]2CCCN2C)c2cc(N)ncc2c1` [Example 73, 7-(2-fluoro-6-methyl-phenyl)-N5-[[(2R)-1-methylpyrrolidin-2-yl]methyl] isoquinoline-3,5-diamine], for which the Ki in assay [1] is 0.0693 nM; in assay [2], 0.498 nM; in assay [3], 0.528 nM; in assay [4] it was 6.45 nM; in assay [5], 98.1 nM; in assay [6], 251 nM.

On to `Cc1cccc(F)c1-c1cc(C(=O)NC2CCN(C)C2)c2cc(N)ncc2c1` (stereo not drawn) [Example 99, 3-Amino-7-(2-fluoro-6-methyl-phenyl)-N-(1-methylpyrrolidin-3-yl)isoquinoline-5-carboxamide], for which the inhibition constant (Ki) in assay [1] stood at 2.91 nM; in assay [2] it was 5.62 nM; in assay [3], 38.8 nM; in assay [4] it was 3.04 nM; in assay [5] it was 32.9 nM; in assay [6] it was 29.2 nM.

With `CCN1CCC(Nc2cc(-c3c(C)cccc3F)cc3cnc(N)nc23)CC1` [Example 127, N8-(1-Ethyl-4-piperidyl)-6-(2-fluoro-6-methyl-phenyl)quinazoline-2,8-diamine], the Ki in assay [1] came to 0.168 nM; in assay [2], 0.647 nM; in assay [3], 1.22 nM; in assay [4], 7.16 nM; in assay [5], 30.8 nM; in assay [6], 149 nM.
